Strand notation (5' to 3'): a small letter for the sugar, then the base; units joined by * are phosphorothioate-linked, units joined directly phosphodiester-linked; [ ] holds rarer units or linkages, { } end groups; capitals alone tell only the bases. e = 2'-O-(2-methoxyethyl) (MOE); [5mC] = 5-methylcytosine; d = 2'-deoxy (DNA)
Test system: human PKK mRNA
Experiment: Antisense inhibition of human PKK mRNA in HepaRG cells, 5,000 nM (Example 2)
Type: cell-based
Method in brief: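 Percent inhibition of PKK mRNA is relative to untreated control, with qRT-PCR (probe set RTS3454) values adjusted to total RNA by RIBOGREEN. Oligonucleotides, fully phosphorothioate 2′-MOE gapmers, were delivered at 5,000 nM by electroporation into 20,000 HepaRG cells/well for about 24 h.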

[1] = human PKK mRNA in HepaRG cells, 5-10-5 gapmers, Table 14
[2] = HepaRG cells, electroporation, 5,000 nM antisense oligonucleotide, approx. 24 hours, primer probe set RTS3454, relative to untreated control cells, Table 12
[3] = human PKK mRNA, HepaRG cells, 5,000 nM antisense oligonucleotide, Table 18
[4] = Table 7, HepaRG cells, electroporation with 5,000 nM antisense oligonucleotide, approx. 24 hours, PKK mRNA by RT-PCR (RTS3454), relative to untreated control cells
[5] = HepaRG cells, 5,000 nM antisense oligonucleotide, 5-10-5 gapmers, Table 17
[6] = human PKK mRNA, HepaRG cells, 5-10-5 motif oligonucleotides targeting SEQ ID NO: 1 and 10
[7] = HepaRG cells, 5,000 nM antisense oligonucleotide, 5-10-5 gapmers, Table 16
[8] = HepaRG cells, 5,000 nM antisense oligonucleotide, human PKK mRNA, Table 18
[9] = Table 9 experiment, HepaRG cells, 20,000 cells per well, electroporation with 5,000 nM antisense oligonucleotide, approx. 24 hours, PKK mRNA by RT-PCR (RTS3454), relative to untreated control cells
[10] = Table 10 experiment, HepaRG cells, 20,000 cells per well, electroporation with 5,000 nM antisense oligonucleotide, approx. 24 hours, PKK mRNA by RT-PCR (RTS3454), relative to untreated control cells
[11] = Table 13, human PKK mRNA in HepaRG cells, 5-10-5 gapmers
[12] = HepaRG cells, electroporation with 5,000 nM antisense oligonucleotide, approximately 24 hours, PKK mRNA by RT-PCR (RTS3454), relative to untreated control cells, Table 6 experiment
[13] = HepaRG cells, electroporation, 5,000 nM antisense oligonucleotide, approx. 24 hours, primer probe set RTS3454, relative to untreated control cells, Table 11
[14] = Table 8, HepaRG cells, electroporation with 5,000 nM antisense oligonucleotide, approx. 24 hours, PKK mRNA by RT-PCR (RTS3454), relative to untreated control cells

## 546850 (eT*eA*eT*e[5mC]*eA*d[5mC]*dT*dG*dT*d[5mC]*d[5mC]*dT*dA*dT*dA*eT*e[5mC]*eA*e[5mC]*eT; antisense) [compound 546850]
[1]
  % inhibition: 80%

## 546406 (eT*eG*eT*e[5mC]*e[5mC]*dT*dG*dT*d[5mC]*dA*dA*d[5mC]*dA*dT*dA*eT*eT*e[5mC]*e[5mC]*eA; antisense) [compound 546406]
[2]
  % inhibition: 80%

## 548766 (antisense eT*eA*eT*eA*dT*d[5mC]*dA*d[5mC]*dT*dG*dT*d[5mC]*d[5mC]*eT*eA*eT*eA) [compound 548766]
[3]
  % inhibition: 36%

## 546878 (e[5mC]*e[5mC]*eT*eA*eT*dA*dA*d[5mC]*dA*dG*dT*dA*dT*d[5mC]*dA*e[5mC]*eT*eG*eT*e[5mC]; antisense) [compound 546878]
[1]
  % inhibition: 81%

## 546233 (eA*eT*eG*eG*eT*dG*dT*dT*dT*dT*d[5mC]*dT*dT*dG*dA*eG*eG*eA*eG*eT; antisense) [compound 546233]
[4]
  % inhibition: 69%

## 547008 (eT*eT*eG*eG*eT*dG*dG*dT*dG*dG*dG*dA*dT*dT*dG*eG*eT*eG*eG*eT; antisense) [compound 547008]
[5]
  % inhibition: 81%

## 548782 (antisense eT*eA*e[5mC]*e[5mC]*dT*dA*dT*dA*dA*d[5mC]*dT*dA*dT*eA*eA*e[5mC]*eA) [compound 548782]
[3]
  % inhibition: 0%

## 547626 (antisense eA*e[5mC]*eA*eG*eT*dA*dT*d[5mC]*dA*d[5mC]*dT*dG*dT*d[5mC]*d[5mC]*eT*eA*eT*eG*eT) [compound 547626]
[6]
  % inhibition: 91%

## 546954 (e[5mC]*eT*eG*e[5mC]*eT*dG*dA*dT*dT*dG*dT*dG*dT*d[5mC]*dT*eG*eG*e[5mC]*eT*e[5mC]; antisense) [compound 546954]
[7]
  % inhibition: 71%

## 548719 (DNA eG*eT*eA*d[5mC]*dT*dA*dG*dT*dT*dT*d[5mC]*d[5mC]*dT*eA*eT*eA*eA; antisense) [compound 548719]
[8]
  % inhibition: 0%

## 546318 (antisense eA*eT*eT*e[5mC]*eA*dA*dA*dG*dG*dA*dG*d[5mC]*d[5mC]*dT*dG*eG*eA*eG*eT*eT) [compound 546318]
[9]
  % inhibition: 47%
[10]
  % inhibition: 46%

## 547579 (eT*eG*eT*e[5mC]*e[5mC]*dT*dA*dT*dA*dA*d[5mC]*dT*d[5mC]*dT*dA*eA*e[5mC]*eA*eG*eT; antisense) [compound 547579]
[11]
  % inhibition: 0%

## 546211 (antisense eG*eG*e[5mC]*eA*eA*d[5mC]*d[5mC]*dA*dA*dT*dT*dT*d[5mC]*dT*dG*eA*eA*eA*eG*eG) [compound 546211]
[12]
  % inhibition: 42%

## 546370 (antisense eA*e[5mC]*eT*eT*eG*dA*dA*d[5mC]*dT*d[5mC]*dA*dG*dG*dT*dT*eG*eT*eA*eA*eA) [compound 546370]
[13]
  % inhibition: 34%

## 547421 (e[5mC]*eA*eT*e[5mC]*e[5mC]*dA*dT*dA*dG*dA*dT*dA*dA*dT*d[5mC]*eT*eT*eA*eA*eG; antisense) [compound 547421]
[14]
  % inhibition: 69%

## 547727 (eT*eG*eG*e[5mC]*eA*dG*dG*dA*dT*dT*dG*dG*dT*dG*dG*eT*eG*eG*eA*eA; antisense) [compound 547727]
[5]
  % inhibition: 0%

## 547467 (antisense eT*eG*eG*eT*eA*dT*dA*dA*dA*dT*dT*dG*dT*dG*d[5mC]*eT*eT*eG*eT*eG) [compound 547467]
[9]
  % inhibition: 80%
[10]
  % inhibition: 65%

## 546266 (eA*e[5mC]*eA*eG*eT*d[5mC]*dT*dT*d[5mC]*dT*dG*dG*dG*dA*dG*eT*eA*eA*eA*eG; antisense) [compound 546266]
[14]
  % inhibition: 63%

## 546157 (eG*eG*eG*eT*eG*dG*dA*dA*dT*dG*dT*dG*d[5mC]*dA*d[5mC]*e[5mC]*eT*e[5mC]*eA*eT; antisense) [compound 546157]
HepaRG cells, electroporation with 5,000 nM antisense oligonucleotide, approximately 24 hours, PKK mRNA by RT-PCR (RTS3454), relative to untreated control cells, Table 5 experiment
  % inhibition: 85%

## 547708 (antisense eG*e[5mC]*e[5mC]*eA*eG*dG*dA*dG*dA*d[5mC]*dA*dG*d[5mC]*d[5mC]*d[5mC]*eT*eA*e[5mC]*eT*e[5mC]) [compound 547708]
[7]
  % inhibition: 67%

## 547589 (eT*eA*eA*e[5mC]*eT*dA*dT*dA*dA*d[5mC]*dA*dG*dT*dA*dT*e[5mC]*eA*e[5mC]*eT*eG; antisense) [compound 547589]
[1]
  % inhibition: 36%

## 546422 (eA*e[5mC]*eG*eG*eT*d[5mC]*dT*dT*d[5mC]*dA*dA*dG*d[5mC]*dT*dG*eT*eT*e[5mC]*eT*eA; antisense) [compound 546422]
[2]
  % inhibition: 72%

## 547625 (antisense e[5mC]*eA*eG*eT*eA*dT*d[5mC]*dA*d[5mC]*dT*dG*dT*d[5mC]*d[5mC]*dT*eA*eT*eG*eT*e[5mC]) [compound 547625]
[6]
  % inhibition: 79%

## 548709 (DNA eG*eT*eA*d[5mC]*dT*dA*dG*dT*dT*dT*d[5mC]*d[5mC]*dT*eA*eT*eA; antisense) [compound 548709]
[8]
  % inhibition: 0%

## 548746 (antisense eT*eA*eT*e[5mC]*dA*d[5mC]*dT*dG*dT*dA*d[5mC]*dT*dA*eG*eT*eT*eT) [compound 548746]
[3]
  % inhibition: 40%

## 546830 (eT*eA*eA*e[5mC]*eA*dG*dT*dA*dT*d[5mC]*dA*d[5mC]*dT*dG*dT*eA*e[5mC]*eT*eA*eG; antisense) [compound 546830]
[11]
  % inhibition: 78%

## 546943 (e[5mC]*eA*eG*eT*eT*dT*dG*dG*d[5mC]*d[5mC]*dT*dT*dT*d[5mC]*d[5mC]*eA*eT*e[5mC]*eT*e[5mC]; antisense) [compound 546943]
[7]
  % inhibition: 54%

## 547380 (eT*eG*eA*e[5mC]*eT*d[5mC]*dG*dA*dT*dT*dT*dT*d[5mC]*d[5mC]*dA*eT*eA*e[5mC]*eA*eT; antisense) [compound 547380]
[4]
  % inhibition: 42%

## 546884 (eA*e[5mC]*eT*eA*eG*dT*dT*dT*d[5mC]*d[5mC]*dT*dA*dT*dA*dA*e[5mC]*eA*eG*eT*eA; antisense) [compound 546884]
[1]
  % inhibition: 6%

## 547511 (antisense eG*eA*eT*eG*eA*dG*dG*dA*d[5mC]*d[5mC]*d[5mC]*d[5mC]*d[5mC]*d[5mC]*dA*eG*eG*e[5mC]*eT*e[5mC]) [compound 547511]
[13]
  % inhibition: 53%

## 547315 (antisense eA*eA*e[5mC]*eT*eG*d[5mC]*dA*d[5mC]*d[5mC]*dT*dG*dT*dT*d[5mC]*dG*eA*eT*eG*eT*eA) [compound 547315]
[12]
  % inhibition: 50%

## 547707 (antisense eT*eG*eA*eA*eA*dA*dG*d[5mC]*d[5mC]*dA*d[5mC]*dG*d[5mC]*d[5mC]*d[5mC]*eT*eT*eA*eG*e[5mC]) [compound 547707]
[7]
  % inhibition: 32%

## 547663 (eT*eA*e[5mC]*e[5mC]*eT*dA*dT*dA*dA*d[5mC]*dT*dA*dT*dA*dA*e[5mC]*eA*eG*eT*eA; antisense) [compound 547663]
[6]
  % inhibition: 10%

## 548776 (antisense e[5mC]*e[5mC]*eT*eA*dT*dA*dA*d[5mC]*dT*dA*dT*dA*dA*e[5mC]*eA*eA*eT) [compound 548776]
[3]
  % inhibition: 0%

## 546199 (antisense eT*eG*eG*e[5mC]*eA*dT*dT*d[5mC]*dT*dT*d[5mC]*dA*dA*d[5mC]*dA*e[5mC]*eT*eG*e[5mC]*eT) [compound 546199]
[12]
  % inhibition: 97%

## 547603 (antisense eT*eA*eT*e[5mC]*eA*d[5mC]*dT*dG*dT*dA*d[5mC]*d[5mC]*dT*dA*dT*eA*eA*e[5mC]*eT*e[5mC]) [compound 547603]
[1]
  % inhibition: 41%

## 548733 (DNA e[5mC]*eA*e[5mC]*eT*dG*dT*dA*d[5mC]*dT*dA*dG*dT*dT*dT*e[5mC]*e[5mC]*eT; antisense) [compound 548733]
[3]
  % inhibition: 84%

## 547000 (eT*e[5mC]*eT*eG*eT*dT*dA*d[5mC]*d[5mC]*dT*dT*dG*dA*dG*dG*eA*eT*eT*eG*eT; antisense) [compound 547000]
[5]
  % inhibition: 63%

## 547486 (antisense eT*eG*e[5mC]*eA*eA*dA*d[5mC]*dT*dA*dA*dG*dG*dG*dA*d[5mC]*e[5mC]*eA*e[5mC]*e[5mC]*eT) [compound 547486]
[9]
  % inhibition: 89%
[10]
  % inhibition: 78%

## 547720 (eG*eA*eA*eA*eG*dA*d[5mC]*dG*dG*d[5mC]*d[5mC]*dA*dA*dT*dG*eG*eG*eA*eA*eA; antisense) [compound 547720]
[7]
  % inhibition: 8%

— US11840686B2, “Modulation of prekallikrein (PKK) expression” (Ionis Pharmaceuticals, Inc., priority 2013, dated 2023)
